Reference: US20230312550A1, “N-(2-(4-CYANOTHIAZOLIDIN-3-YL)-2-OXOETHYL)-QUINOLINE-4-CARBOXAMIDES” (AstraZeneca AB, priority 2020, published 2023)
Converted amounts (≈) assume the structure as drawn.

Key:
Caco-2 cell permeability = conditions: human
Experimental: Caco-2 cell permeability was measured as described in Mol Pharm 2017, 14, 1601.

[1] = Metabolic stability in human hepatocytes (hHep); format: in vitro ADME; conditions: n = 1 or geometric mean of n = 2
[2] = Metabolic stability in human liver microsomes (HLM); conditions: human
Experimental: Metabolic stability in HLM was measured as described in J Comput Aided Mol Des 2015, 29, 795.

[3] = Metabolic stability in rat hepatocytes (rHep); conditions: n = 1 or geometric mean of n = 2-3
[4] = biological target: Prolyl endopeptidase, Prolyl Oligopeptidase (hPREP) (Homo sapiens (Human), UniProt P48147); test: hPrep inhibition assay; format: biochemical; conditions: hPREP 0.6 nM, Z-Gly-Pro-amino-methylcoumarin 50 μM; read-out: PREP IC50
Summary of the method: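 Fluorogenic read-out (340 nm excitation, 460 nm emission) after 20 min at rt, using 50 μM final Z-Gly-Pro-aminomethylcoumarin and 0.6 nM final enzyme, following 15 min compound preincubation. Buffer pH 7.5 with glutathione and Triton X-100. IC50 via one-site model on % inhibition vs log concentration.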

Kinetic solubility = conditions: kinetic from dmso stock
Experimental: Kinetic solubility was measured as described in Comput Aided Mol Des 2015, 29, 795.

hFAP (M39-A757) = hFAP (M39-A757) (Homo sapiens (Human), UniProt Q12884); test: hFAP binding assay (surface plasmon resonance); conditions: SPR, 20° C.; for hFAP Binding assay k(off) / hFAP Binding assay k(on): single cycle kinetics; for Kd: n = 1 or geometric mean n = 2-4
[5] = biological target: human Fibroblast activation protein alpha (hFAP) (Homo sapiens (Human), UniProt Q12884); test: hFAP inhibition assay (tight binders); format: biochemical; conditions: Ala-Pro-AMC 20 μM, n = 1 or geometric mean n = 2-6; further: hFAP 2.4 pM
Experimental: The plates were read on a PHERAstar® reader with excitation 340 nm and emission 460 nm. Data were analyzed in Genedata Screener®. IC50 values were determined by plotting % inhibition versus log compound concentration and using a one site dose response model.

FAP = FAP (Homo sapiens (Human), UniProt Q12884); test: hFAP inhibition assay; format: biochemical; conditions: hFAP […], Ala-Pro-AMC 20 μM; n = 1 or geometric mean n = 2-3
Summary of the method: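 Compounds (10-point, 3-fold dilutions from 50 μM top) were preincubated 15 min at rt in the dark with 0.48 nM hFAP in pH 7.4 Tris/NaCl/Chaps buffer. Reaction was started with substrate (40 μM solution) and ran 30 min at rt. Read by fluorescence (340/460 nm); IC50 from one-site fit.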

[6] = HLM CLint, n = 1 or average of n = 2-3
[7] = Solubility, kinetic solubility, n = 1 or average of n = 2-3

Prolyl endopeptidase, Prolyl Oligopeptidase (hPREP), sequence (P48147 whole entry): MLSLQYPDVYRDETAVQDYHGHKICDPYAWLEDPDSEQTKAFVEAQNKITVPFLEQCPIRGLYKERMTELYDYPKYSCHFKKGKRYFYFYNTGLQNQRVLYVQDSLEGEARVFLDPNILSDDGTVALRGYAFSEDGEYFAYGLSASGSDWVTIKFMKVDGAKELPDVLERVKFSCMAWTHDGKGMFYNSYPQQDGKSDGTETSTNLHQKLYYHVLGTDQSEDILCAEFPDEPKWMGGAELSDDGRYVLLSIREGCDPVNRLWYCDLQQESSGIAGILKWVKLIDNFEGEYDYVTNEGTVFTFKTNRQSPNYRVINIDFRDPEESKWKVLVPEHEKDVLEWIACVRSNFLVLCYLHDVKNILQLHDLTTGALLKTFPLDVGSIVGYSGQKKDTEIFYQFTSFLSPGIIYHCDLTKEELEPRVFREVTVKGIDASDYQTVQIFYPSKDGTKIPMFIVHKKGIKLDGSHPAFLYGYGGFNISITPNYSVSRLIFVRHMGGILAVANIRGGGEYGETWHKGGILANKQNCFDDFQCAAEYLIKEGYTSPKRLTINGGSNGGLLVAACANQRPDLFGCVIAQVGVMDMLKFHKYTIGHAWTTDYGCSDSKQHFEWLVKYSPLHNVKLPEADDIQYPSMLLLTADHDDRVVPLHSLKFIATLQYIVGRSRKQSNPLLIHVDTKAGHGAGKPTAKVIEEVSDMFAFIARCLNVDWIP
FAP, sequence (Q12884 38-760): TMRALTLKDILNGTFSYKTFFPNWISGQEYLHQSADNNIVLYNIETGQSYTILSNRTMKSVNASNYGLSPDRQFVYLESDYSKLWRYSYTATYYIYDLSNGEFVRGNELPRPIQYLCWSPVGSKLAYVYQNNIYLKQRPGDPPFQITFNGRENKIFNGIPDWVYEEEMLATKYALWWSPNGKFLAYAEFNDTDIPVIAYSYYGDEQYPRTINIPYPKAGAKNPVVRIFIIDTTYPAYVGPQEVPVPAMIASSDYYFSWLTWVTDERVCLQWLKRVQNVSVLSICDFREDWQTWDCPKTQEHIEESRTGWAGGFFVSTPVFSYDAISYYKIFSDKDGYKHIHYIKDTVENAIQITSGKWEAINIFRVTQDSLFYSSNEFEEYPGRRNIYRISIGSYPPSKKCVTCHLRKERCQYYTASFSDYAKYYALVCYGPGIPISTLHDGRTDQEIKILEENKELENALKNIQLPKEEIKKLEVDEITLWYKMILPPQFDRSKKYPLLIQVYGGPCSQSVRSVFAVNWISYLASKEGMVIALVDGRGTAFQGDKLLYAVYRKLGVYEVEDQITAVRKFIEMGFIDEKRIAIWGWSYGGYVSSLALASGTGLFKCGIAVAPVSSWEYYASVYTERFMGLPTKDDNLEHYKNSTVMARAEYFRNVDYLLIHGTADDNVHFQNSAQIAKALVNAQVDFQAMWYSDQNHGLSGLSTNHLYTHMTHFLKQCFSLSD
human Fibroblast activation protein alpha (hFAP), sequence (Q12884 38-760): as above
hFAP (M39-A757), sequence (Q12884 39-757): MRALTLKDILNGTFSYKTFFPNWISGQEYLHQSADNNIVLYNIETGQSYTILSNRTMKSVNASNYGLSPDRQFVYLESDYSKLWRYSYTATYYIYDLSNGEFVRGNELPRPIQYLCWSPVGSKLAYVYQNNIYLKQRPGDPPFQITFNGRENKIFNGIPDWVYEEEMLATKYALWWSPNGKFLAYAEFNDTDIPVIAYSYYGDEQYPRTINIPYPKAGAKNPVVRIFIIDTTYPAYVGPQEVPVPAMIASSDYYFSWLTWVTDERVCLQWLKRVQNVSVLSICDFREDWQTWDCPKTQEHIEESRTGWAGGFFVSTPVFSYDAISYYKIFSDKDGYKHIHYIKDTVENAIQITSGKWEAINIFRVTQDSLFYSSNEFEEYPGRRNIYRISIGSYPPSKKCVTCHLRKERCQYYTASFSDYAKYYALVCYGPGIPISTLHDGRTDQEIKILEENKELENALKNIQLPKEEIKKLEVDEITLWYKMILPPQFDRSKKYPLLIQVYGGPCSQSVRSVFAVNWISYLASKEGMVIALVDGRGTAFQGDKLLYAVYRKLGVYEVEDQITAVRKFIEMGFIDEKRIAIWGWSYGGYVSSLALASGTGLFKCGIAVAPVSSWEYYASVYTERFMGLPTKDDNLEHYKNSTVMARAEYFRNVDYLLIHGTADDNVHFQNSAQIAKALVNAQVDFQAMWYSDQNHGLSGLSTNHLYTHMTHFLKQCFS

| SMILES | Papp A→B (Caco-2 cell permeability) [nm/s] | Papp B→A (Caco-2 cell permeability) [nm/s] | efflux ratio (Caco-2 cell permeability) | hHep CLint [1] [μL/min/1E6] | microsomal CLint [2, 6] [µL/min/mg] | rHep CLint [3] [μL/min/1E6] | IC50 [4] [nM] | solubility (Kinetic solubility; [7]) [µM] | hFAP Binding assay k(off) (hFAP (M39-A757)) [s⁻¹] | hFAP Binding assay k(on) (hFAP (M39-A757)) [M⁻¹ s⁻¹] | Kd (hFAP (M39-A757)) [nM] | IC50 [5] [nM] | IC50 (FAP) [nM] | Papp (Caco-2 cell permeability) [nm/s] | microsomal CLint [2] [µL/min/mg] | solubility (Kinetic solubility) [µM] |
| --- | --- | --- | --- | --- | --- | --- | --- | --- | --- | --- | --- | --- | --- | --- | --- | --- |
| N#C[C@@H]1CSCN1C(=O)CNC(=O)c1ccnc2ccc(N3CCCCO3)cc12 [Example 1, (R)—N-(2-(4-Cyanothiazolidin-3-yl)-2-oxoethyl)-6-(1,2-oxazinan-2-yl)-quinoline-4-carboxamide] | 47 | 290 | 6.1 | <1 | 14 | 4.9 | 410 | > 1000 | 0.00014 | 730000 | 0.18 | 0.099 |  |  |  |  |
| CC1(C)COC12CN(c1ccc3nccc(C(=O)NCC(=O)N4CSC[C@H]4C#N)c3c1)C2 [Example 18, (R)—N-(2-(4-Cyanothiazolidin-3-yl)-2-oxoethyl)-6-(3,3-dimethyl-1-oxa-6-azaspiro[3.3]heptan-6-yl)quinoline-4-carboxamide] | 9 | 310 | 34 | 3.7 |  | 6 | 570 |  | 0.000059 | 1400000 | 0.068 | 0.047 | 0.19 | 130 | 22 | 93 (≈ 42 µg/mL) |
| N#C[C@@H]1CSCN1C(=O)CNC(=O)c1ccnc2ccc(N3CC(F)C3)cc12 [Example 21, (R)—N-(2-(4-Cyanothiazolidin-3-yl)-2-oxoethyl)-6-(3-fluoroazetidin-1-yl)quinoline-4-carboxamide] | 37 | 230 | 6.2 | <1 | 15 | 17 | 93 | 390 (≈ 156 µg/mL) | 0.0002 | 3000000 | 0.066 | 0.11 | 0.29 |  |  |  |
| COCC1(C)CN(c2ccc3nccc(C(=O)NCC(=O)N4CSC[C@H]4C#N)c3c2)C1 [Example 29, (R)—N-(2-(4-Cyanothiazolidin-3-yl)-2-oxoethyl)-6-(3-(methoxymethyl)-3-methylazetidin-1-yl)quinoline-4-carboxamide] | 37 | 370 | 10 | <1 | 18 | 4.5 | 500 | 560 (≈ 246 µg/mL) | 0.000061 | 1100000 | 0.057 | 0.055 | 0.13 | 260 |  |  |
| CO[C@@H]1CN(c2ccc3nccc(C(=O)NCC(=O)N4CSC[C@H]4C#N)c3c2)[C@H]1C [Example 30, N-(2-((R)-4-Cyanothiazolidin-3-yl)-2-oxoethyl)-6-((2S,3R)-3-methoxy-2-methylazetidin-1-yl)quinoline-4-carboxamide] | 31 | 300 | 9.6 | <1 | < 3 | 7.2 | 510 | > 1000 | 0.00022 | 5200000 | 0.042 | 0.12 | 0.28 | 150 |  |  |
| N#C[C@@H]1CSCN1C(=O)CNC(=O)c1ccnc2ccc(N3CCOC4(CCOCC4)C3)cc12 [Example 99, (R)—N-(2-(4-cyanothiazolidin-3-yl)-2-oxoethyl)-6-(1,9-dioxa-4-azaspiro[5.5]undecan-4-yl)quinoline-4-carboxamide] | 4.6 | 210 | 46 | 1.9 |  | 8.1 | 1100 |  | 0.0002 | 2100000 | 0.11 | 0.12 |  |  | 16 | 800 (≈ 385 µg/mL) |
| N#C[C@@H]1CSCN1C(=O)CNC(=O)c1ccnc2ccc(N3CCC4(CC3)OCCO4)cc12 [Example 228, (R)—N-(2-(4-cyanothiazolidin-3-yl)-2-oxoethyl)-6-(1,4-dioxa-8-azaspiro[4.5]decan-8-yl)quinoline-4-carboxamide] | 250 | 270 | 0.9 | <1 |  | 9 | 1200 |  |  |  |  | 0.087 |  | 9 | < 3 | 879 (≈ 411 µg/mL) |

More lines, main results first:

| Papp A→B (Caco-2 cell permeability) [nm/s] | Papp B→A (Caco-2 cell permeability) [nm/s] | efflux ratio (Caco-2 cell permeability) | hHep CLint [1] [μL/min/1E6] | microsomal CLint [2, 6] [µL/min/mg] | rHep CLint [3] [μL/min/1E6] | IC50 [4] [nM] | solubility (Kinetic solubility; [7]) [µM] | hFAP Binding assay k(off) (hFAP (M39-A757)) [s⁻¹] | hFAP Binding assay k(on) (hFAP (M39-A757)) [M⁻¹ s⁻¹] | Kd (hFAP (M39-A757)) [nM] | IC50 [5] [nM] | IC50 (FAP) [nM] | SMILES | Papp (Caco-2 cell permeability) [nm/s] | microsomal CLint [2] [µL/min/mg] | solubility (Kinetic solubility) [µM] |
| --- | --- | --- | --- | --- | --- | --- | --- | --- | --- | --- | --- | --- | --- | --- | --- | --- |
| 87 | 280 | 3.3 | 4.1 | 40 | 19 | 450 | 240 (≈ 98.3 µg/mL) | 0.000029 | 1300000 | 0.022 | 0.16 | 0.3 | N#C[C@@H]1CSCN1C(=O)CNC(=O)c1ccnc2ccc(N3CCCCC3)cc12 [Example 32, (R)—N-(2-(4-Cyanothiazolidin-3-yl)-2-oxoethyl)-6-(piperidin-1-yl)quinoline-4-carboxamide] |  |  |  |
| 28 | 330 | 12 | 2.7 | 21 | 7.6 | 880 |  | 0.000054 | 1800000 | 0.03 | 0.053 |  | COC1(C)CCN(c2ccc3nccc(C(=O)NCC(=O)N4CSC[C@H]4C#N)c3c2)CC1 [Example 42, (R)—N-(2-(4-Cyanothiazolidin-3-yl)-2-oxoethyl)-6-(4-methoxy-4-methylpiperidin-1-yl)quinoline-4-carboxamide] |  |  |  |
| 1.2 | 42 | 35 | <1 | 14 | 1.7 | 2400 | 810 (≈ 408 µg/mL) | 0.00011 | 2200000 | 0.047 | 0.074 |  | CS(=O)(=O)C[C@H]1CN(c2ccc3nccc(C(=O)NCC(=O)N4CSC[C@H]4C#N)c3c2)CCO1 [Example 92, N-(2-((R)-4-Cyanothiazolidin-3-yl)-2-oxoethyl)-6-((R)-2-((methylsulfonyl)-methyl)morpholino)quinoline-4-carboxamide] |  |  |  |
| 1.5 | 44 | 29 | <1 | 7.1 | 2.2 | 1800 | 920 (≈ 463 µg/mL) | 0.000099 | 1900000 | 0.074 | 0.071 |  | CS(=O)(=O)C[C@@H]1CN(c2ccc3nccc(C(=O)NCC(=O)N4CSC[C@H]4C#N)c3c2)CCO1 [Example 94, N-(2-((R)-4-Cyanothiazolidin-3-yl)-2-oxoethyl)-6-((S)-2-((methylsulfonyl)-methyl)morpholino)quinoline-4-carboxamide] |  |  |  |
